# Measured values published in paper PMC8443589, “Modelling human liver fibrosis in the context of non-alcoholic steatohepatitis using a microphysiological system” (Communications Biology, 2021).
# What was measured:
# [1] = test system: liver MPS NASH model (PHH, KC and HSC co-cultures, high fat); assay: Secreted cytokine/biomarker profile (Luminex, ELISA) of liver MPS NASH model dosed with OCA or ELF; assay type: cell-based, human
# Protocol: Fig. 3 Obeticholic acid and Elafibranor both modulate inflammatory and fibrosis phenotype in liver MPS NASH model and phenotype can additionally be reversed with dietary changes. PHH, KC and HSC co-cultures were cultured in the MPS platform under high fat conditions and dosed with varying concentrations of Obeticholic acid (OCA) and Elafibranor (ELF) QD or vehicle control (control) for 10 days, following an initial 4-day pre-culture phase. a The secreted cytokine profile from liver microtissues was compared by Luminex to determine the effects of each compound on the inflammatory profile of the liver with samples analysed at day 8 and 14 of the culture. Data were normalised by Z-transformation to allow comparison of all analytes and presented as a heatmap. b The expression of fibrosis-associated genes was analysed in total RNA from control, OCA and ELF treated liver microtissues (highest concentration for each compound) using Human Fibrosis RT2 Profiler PCR Arrays. Gene expression changes are expressed as a fold change over control. c Liver microtissues were stained for collagen-type I, α-SMA, nuclei (DAPI - blue), phalloidin (green) and imaged by confocal microscopy. Representative images are shown and scale bars 200 µm. d Staining of microtissue was quantified by measuring total fluorescence intensity throughout individual microtissues, each data point represents an average of all the microtissues imaged within an MPS scaffold (min 8, max 20 microtissues). e PHH, KC and HSC co-cultures were cultured in the MPS platform under high fat or lean conditions for 30 days. Cultures either remained in the same type of media throughout or were switched at day 15 from fat media to lean media (Fat -> Lean). Cell culture medium samples were analysed for the presence of IL-6, f MCP-1, g TIMP-1, which were measured by ELISA. h Microtissues were stained with Oil-Red O to determine fat loading during culture period, total stain was quantified by absorbance at 510 nm. All datapoints shown, either as box-whisker plots highlighting mean and min-max or with error bars highlighting means ± SD. All data from a minimum of three independent cultures; statistical comparisons made to control samples unless other comparison shown.
# Soluble biomarkers in cell culture medium from the MPS were analysed by enzyme-linked immunosorbent assay (ELISA); IL-6 was measured by Human IL-6 DuoSet ELISA (R&D Systems); MCP-1 was measured by Human CCL2/MCP-1 DuoSet ELISA (R&D Systems); pro-collagen 1 was measured by Human Pro-Collagen I α1 DuoSet (R&D Systems); TIMP-1 was measured by Human TIMP-1 Quantikine ELISA Kit (R&D Systems); Fibronectin was measured by Human Fibronectin DuoSet ELISA (R&D Systems); YKL-40 was measured by Human Chitinase 3-like 1 Quantikine ELISA Kit (R&D Systems); Albumin secretion was measured by Human Albumin AssayMax™ ELISA kit (Assay Pro, St. Charles, MO). For all assays, the manufacturer’s protocol was followed.
# Cytokine profiles in cell culture medium samples were also analysed by Luminex array for determination of 38 analytes in total, consisting of cytokines, chemokines, and growth factors using the MILLIPLEX MAP Human Cytokine/Chemokine Magnetic Bead Panel - Premixed 38 Plex (Merck Millipore, USA).
# Liver microtissues were cultured for 4 days in HEP-FAT medium, before dosing with obeticholic acid or elafibranor. Both compounds were dissolved in DMSO, diluted in cell culture medium (final DMSO concentration ≤1%) and added to microtissues during a full medium change every two days and in addition on the intervening days compounds were spiked into the media to increase drug concentration back to desired concentrations. Cultures were maintained in the presence of the compound, for a total of 10 days in the presence or absence of TGFβ.
# human NASH patients = details: 18-month interim analysis; cited from earlier work
smiles,measurement,setting,value
CC[C@H]1[C@@H](O)[C@@H]2[C@H](CC[C@]3(C)[C@@H]([C@H](C)CCC(=O)O)CC[C@@H]23)[C@@]2(C)CC[C@@H](O)C[C@@H]12 [Obeticholic acid],"inflammatory cytokines, including CXCL1, IL1-Rα, IL-6 and MCP-1",[1]; 10 days of compound treatment,concentration-dependent decrease
same,CXCL1 fold change in production compared to control,"[1]; OCA 0.25 µM QD, D8",1.039
same,CXCL10 fold change in production compared to control,"[1]; OCA 0.25 µM QD, D8",1.592
same,FN1 fold change in production compared to control,"[1]; OCA 0.25 µM QD, D8",1.009
same,IL-1RA fold change in production compared to control,"[1]; OCA 0.25 µM QD, D8",0.6936
same,IL-4 fold change in production compared to control,"[1]; OCA 0.25 µM QD, D8",1.307
same,IL-6 fold change in production compared to control,"[1]; OCA 0.25 µM QD, D8",0.4788
same,IL-8 fold change in production compared to control,"[1]; OCA 0.25 µM QD, D8",1.109
same,MCP-1 fold change in production compared to control,"[1]; OCA 0.25 µM QD, D8",1.237
same,MIP-1a fold change in production compared to control,"[1]; OCA 0.25 µM QD, D8",1.006
same,MIP-1b fold change in production compared to control,"[1]; OCA 0.25 µM QD, D8",1.009
same,TIMP-1 fold change in production compared to control,"[1]; OCA 0.25 µM QD, D8",0.957
same,VEGF fold change in production compared to control,"[1]; OCA 0.25 µM QD, D8",0.3694
same,CXCL1 fold change in production compared to control,"[1]; OCA 0.25 µM QD, D14",0.7512
same,CXCL10 fold change in production compared to control,"[1]; OCA 0.25 µM QD, D14",1.289
same,FN1 fold change in production compared to control,"[1]; OCA 0.25 µM QD, D14",1.087
same,IL-1RA fold change in production compared to control,"[1]; OCA 0.25 µM QD, D14",0.3915
same,IL-4 fold change in production compared to control,"[1]; OCA 0.25 µM QD, D14",1.067
same,IL-6 fold change in production compared to control,"[1]; OCA 0.25 µM QD, D14",0.3892
same,IL-8 fold change in production compared to control,"[1]; OCA 0.25 µM QD, D14",0.7621
same,MCP-1 fold change in production compared to control,"[1]; OCA 0.25 µM QD, D14",1.11
same,MIP-1a fold change in production compared to control,"[1]; OCA 0.25 µM QD, D14",1.483
same,MIP-1b fold change in production compared to control,"[1]; OCA 0.25 µM QD, D14",1.406
same,TIMP-1 fold change in production compared to control,"[1]; OCA 0.25 µM QD, D14",0.7667
same,VEGF fold change in production compared to control,"[1]; OCA 0.25 µM QD, D14",0.2436
same,CXCL1 fold change in production compared to control,"[1]; OCA 5 µM QD, D8",0.9903
same,CXCL10 fold change in production compared to control,"[1]; OCA 5 µM QD, D8",1.252
same,FN1 fold change in production compared to control,"[1]; OCA 5 µM QD, D8",0.9708
same,IL-1RA fold change in production compared to control,"[1]; OCA 5 µM QD, D8",0.2279
same,IL-4 fold change in production compared to control,"[1]; OCA 5 µM QD, D8",1.215
same,IL-6 fold change in production compared to control,"[1]; OCA 5 µM QD, D8",0.3708
same,IL-8 fold change in production compared to control,"[1]; OCA 5 µM QD, D8",1.325
same,MCP-1 fold change in production compared to control,"[1]; OCA 5 µM QD, D8",0.9348
same,MIP-1a fold change in production compared to control,"[1]; OCA 5 µM QD, D8",0.7425
same,MIP-1b fold change in production compared to control,"[1]; OCA 5 µM QD, D8",0.6949
same,TIMP-1 fold change in production compared to control,"[1]; OCA 5 µM QD, D8",0.8577
same,VEGF fold change in production compared to control,"[1]; OCA 5 µM QD, D8",0.4201
same,CXCL1 fold change in production compared to control,"[1]; OCA 5 µM QD, D14",0.8937
same,CXCL10 fold change in production compared to control,"[1]; OCA 5 µM QD, D14",1.722
same,FN1 fold change in production compared to control,"[1]; OCA 5 µM QD, D14",1.05
same,IL-1RA fold change in production compared to control,"[1]; OCA 5 µM QD, D14",0.2225
same,IL-4 fold change in production compared to control,"[1]; OCA 5 µM QD, D14",1.3182
same,IL-6 fold change in production compared to control,"[1]; OCA 5 µM QD, D14",0.3278
same,IL-8 fold change in production compared to control,"[1]; OCA 5 µM QD, D14",2.0708
same,MCP-1 fold change in production compared to control,"[1]; OCA 5 µM QD, D14",0.6363
same,MIP-1a fold change in production compared to control,"[1]; OCA 5 µM QD, D14",0.8372
same,MIP-1b fold change in production compared to control,"[1]; OCA 5 µM QD, D14",0.7752
same,TIMP-1 fold change in production compared to control,"[1]; OCA 5 µM QD, D14",0.8205
same,VEGF fold change in production compared to control,"[1]; OCA 5 µM QD, D14",0.5877
same,CXCL1 fold change in production compared to control,"[1]; OCA 12.5 µM QD, D8",0.5392
same,CXCL10 fold change in production compared to control,"[1]; OCA 12.5 µM QD, D8",1.011
same,FN1 fold change in production compared to control,"[1]; OCA 12.5 µM QD, D8",0.8305
same,IL-1RA fold change in production compared to control,"[1]; OCA 12.5 µM QD, D8",0.1467
same,IL-4 fold change in production compared to control,"[1]; OCA 12.5 µM QD, D8",0.6477
same,IL-6 fold change in production compared to control,"[1]; OCA 12.5 µM QD, D8",0.3353
same,IL-8 fold change in production compared to control,"[1]; OCA 12.5 µM QD, D8",0.6609
same,MCP-1 fold change in production compared to control,"[1]; OCA 12.5 µM QD, D8",0.4398
same,MIP-1a fold change in production compared to control,"[1]; OCA 12.5 µM QD, D8",1.1281
same,MIP-1b fold change in production compared to control,"[1]; OCA 12.5 µM QD, D8",0.9989
same,TIMP-1 fold change in production compared to control,"[1]; OCA 12.5 µM QD, D8",1.076
same,VEGF fold change in production compared to control,"[1]; OCA 12.5 µM QD, D8",0.449
same,CXCL1 fold change in production compared to control,"[1]; OCA 12.5 µM QD, D14",0.5648
same,CXCL10 fold change in production compared to control,"[1]; OCA 12.5 µM QD, D14",0.9485
same,FN1 fold change in production compared to control,"[1]; OCA 12.5 µM QD, D14",0.8335
same,IL-1RA fold change in production compared to control,"[1]; OCA 12.5 µM QD, D14",0.07151
same,IL-4 fold change in production compared to control,"[1]; OCA 12.5 µM QD, D14",0.8808
same,IL-6 fold change in production compared to control,"[1]; OCA 12.5 µM QD, D14",0.05395
same,IL-8 fold change in production compared to control,"[1]; OCA 12.5 µM QD, D14",1.84
same,MCP-1 fold change in production compared to control,"[1]; OCA 12.5 µM QD, D14",0.2656
same,MIP-1a fold change in production compared to control,"[1]; OCA 12.5 µM QD, D14",0.8417
same,MIP-1b fold change in production compared to control,"[1]; OCA 12.5 µM QD, D14",0.7263
same,TIMP-1 fold change in production compared to control,"[1]; OCA 12.5 µM QD, D14",0.9472
same,VEGF fold change in production compared to control,"[1]; OCA 12.5 µM QD, D14",0.5676
same,NASH resolution in phase 3 trial,human NASH patients,did not reach statistical significance
same,liver fibrosis in phase 3 trial,human NASH patients,improved liver fibrosis
